Laboratory results published in ChEMBL document CHEMBL4004852, “Pharmacophore Mapping of Thienopyrimidine-Based Monophosphonate (ThP-MP) Inhibitors of the Human Farnesyl Pyrophosphate Synthase” (J Med Chem, 2017).

Molecular target: T1, Farnesyl pyrophosphate synthase (Homo sapiens, UniProt P14324)
T1 sequence (P14324 whole entry): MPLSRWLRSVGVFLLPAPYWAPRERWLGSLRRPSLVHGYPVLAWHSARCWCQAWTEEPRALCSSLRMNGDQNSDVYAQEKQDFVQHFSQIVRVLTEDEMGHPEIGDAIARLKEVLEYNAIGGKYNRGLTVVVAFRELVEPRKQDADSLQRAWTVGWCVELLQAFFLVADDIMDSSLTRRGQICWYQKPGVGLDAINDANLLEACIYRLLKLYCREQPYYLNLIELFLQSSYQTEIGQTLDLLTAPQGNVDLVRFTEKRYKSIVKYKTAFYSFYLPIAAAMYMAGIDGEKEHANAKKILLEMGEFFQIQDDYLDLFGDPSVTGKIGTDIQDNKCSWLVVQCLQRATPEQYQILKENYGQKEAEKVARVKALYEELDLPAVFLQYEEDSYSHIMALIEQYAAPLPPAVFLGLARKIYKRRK
Assay: Inhibition of N-terminal His-tagged human recombinant FPPS expressed in Escherichia coli BL21 (DE3) using GPP and [3H]-IPP as substrate preincubated for 10 mins before substrate addition measured after 8 mins by liquid scintillation counting

IC50 [nM] | Structure (SMILES)
8400 | COc1cc(C)c(Cl)cc1-c1cc2c(NC(c3ccccc3)P(=O)(O)O)ncnc2s1 (stereo unspecified)
1400 | Cc1ccc(-c2cc3c(NC(Cc4ccccc4)P(=O)(O)O)ncnc3s2)cc1 (stereo unspecified)
≥ 100000 | Cc1ccc(-c2sc3ncnc4c3c2COP(=O)(O)CCC4)cc1
10000 | Cc1ccc(-c2sc3ncnc(NCP(=O)(O)O)c3c2C)cc1
8800 | COc1cc(C)c(Cl)cc1-c1cc2c(NCP(=O)(O)O)ncnc2s1
3700 | Cc1ccc(-c2cc3c(N[C@@H](Cc4ccccc4)C(=O)NP(=O)(O)O)ncnc3s2)cc1
5000 | Cc1ccc(-c2cc3c(NCP(=O)(O)O)ncnc3s2)cc1
2600 | Cc1ccc(-c2sc3ncnc(NC(Cc4ccccc4)P(=O)(O)O)c3c2C)cc1 (stereo unspecified)
1600 | Cc1ccc(-c2cc3c(NC(CC4CCCCC4)P(=O)(O)O)ncnc3s2)cc1 (stereo unspecified)
1000 | COc1ccc(F)cc1-c1cc2c(NC(Cc3cccc(F)c3)P(=O)(O)O)ncnc2s1 (stereo unspecified)
870 | COc1cc(C)c(F)cc1-c1cc2c(NC(Cc3cccc(F)c3)P(=O)(O)O)ncnc2s1 (stereo unspecified)
3000 | Cc1ccc(-c2cc3c(NC(c4ccc5c(c4)CCO5)P(=O)(O)O)ncnc3s2)cc1 (stereo unspecified)
1500 | Cc1ccc(-c2cc3c(NC(Cc4cccc(F)c4)P(=O)(O)O)ncnc3s2)cc1F (stereo unspecified)
> 100000 | O=P(O)(O)CNc1ncnc2sccc12
4600 | COc1cc(C)c(Cl)cc1-c1cc2c(NC(Cc3ccccc3)P(=O)(O)O)ncnc2s1 (stereo unspecified)
4000 | Cc1ccc(-c2cc3c(N[C@@H](Cc4ccccc4)P(=O)(O)O)ncnc3s2)cc1
≥ 100000 | Cc1ccc(-c2sc3ncncc3c2CP(=O)(O)O)cc1
1600 | COc1cc(C)c(F)cc1-c1cc2c(NC(Cc3ccccc3)P(=O)(O)O)ncnc2s1 (stereo unspecified)
860 | Cc1ccc(-c2cc3c(NC(Cc4cccc(F)c4)P(=O)(O)O)ncnc3s2)cc1Cl (stereo unspecified)
2300 | Cc1ccc(-c2cc3c(NC(Cc4ccccc4)P(=O)(O)O)ncnc3s2)cc1Cl (stereo unspecified)
2800 | Cc1ccc(-c2cc3c(NC(CC4CCC4)P(=O)(O)O)ncnc3s2)cc1 (stereo unspecified)
1600 | Cc1ccc(-c2cc3c(NC(c4ccccc4)P(=O)(O)O)ncnc3s2)cc1Cl (stereo unspecified)
4800 | Cc1ccc(-c2cc3c(NC(c4ccccc4)P(=O)(O)O)ncnc3s2)cc1 (stereo unspecified)
1000 | Cc1ccc(-c2cc3c(N[C@H](Cc4ccccc4)P(=O)(O)O)ncnc3s2)cc1
4600 | COc1cc(C)c(F)cc1-c1cc2c(NCP(=O)(O)O)ncnc2s1

Structure (SMILES) | IC50 [nM]
Cc1ccc(-c2cc3c(NC(Cc4cccc(F)c4)P(=O)(O)O)ncnc3s2)cc1 (stereo unspecified) | 1100
